What was measured:
Conditions in all cases: binder
AurA = biological target: T1, AurA (Homo sapiens, UniProt O14965)
T1 sequence (O14965 1-403): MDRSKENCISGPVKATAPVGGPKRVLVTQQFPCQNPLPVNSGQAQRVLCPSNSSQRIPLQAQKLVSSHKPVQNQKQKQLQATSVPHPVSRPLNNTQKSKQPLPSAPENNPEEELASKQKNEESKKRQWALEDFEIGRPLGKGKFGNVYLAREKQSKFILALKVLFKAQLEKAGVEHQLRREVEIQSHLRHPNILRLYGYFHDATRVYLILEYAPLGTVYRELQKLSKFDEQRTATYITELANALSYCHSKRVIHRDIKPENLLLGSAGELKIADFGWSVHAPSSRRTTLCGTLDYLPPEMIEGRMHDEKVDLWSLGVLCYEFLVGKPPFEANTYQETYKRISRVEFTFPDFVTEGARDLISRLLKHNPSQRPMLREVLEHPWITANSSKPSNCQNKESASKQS

CDK2 = CDK2 (Homo sapiens, UniProt P24941)
PLK4 = biological target: T2, PLK4 (Homo sapiens, UniProt O00444)
T2 sequence (O00444 1-970): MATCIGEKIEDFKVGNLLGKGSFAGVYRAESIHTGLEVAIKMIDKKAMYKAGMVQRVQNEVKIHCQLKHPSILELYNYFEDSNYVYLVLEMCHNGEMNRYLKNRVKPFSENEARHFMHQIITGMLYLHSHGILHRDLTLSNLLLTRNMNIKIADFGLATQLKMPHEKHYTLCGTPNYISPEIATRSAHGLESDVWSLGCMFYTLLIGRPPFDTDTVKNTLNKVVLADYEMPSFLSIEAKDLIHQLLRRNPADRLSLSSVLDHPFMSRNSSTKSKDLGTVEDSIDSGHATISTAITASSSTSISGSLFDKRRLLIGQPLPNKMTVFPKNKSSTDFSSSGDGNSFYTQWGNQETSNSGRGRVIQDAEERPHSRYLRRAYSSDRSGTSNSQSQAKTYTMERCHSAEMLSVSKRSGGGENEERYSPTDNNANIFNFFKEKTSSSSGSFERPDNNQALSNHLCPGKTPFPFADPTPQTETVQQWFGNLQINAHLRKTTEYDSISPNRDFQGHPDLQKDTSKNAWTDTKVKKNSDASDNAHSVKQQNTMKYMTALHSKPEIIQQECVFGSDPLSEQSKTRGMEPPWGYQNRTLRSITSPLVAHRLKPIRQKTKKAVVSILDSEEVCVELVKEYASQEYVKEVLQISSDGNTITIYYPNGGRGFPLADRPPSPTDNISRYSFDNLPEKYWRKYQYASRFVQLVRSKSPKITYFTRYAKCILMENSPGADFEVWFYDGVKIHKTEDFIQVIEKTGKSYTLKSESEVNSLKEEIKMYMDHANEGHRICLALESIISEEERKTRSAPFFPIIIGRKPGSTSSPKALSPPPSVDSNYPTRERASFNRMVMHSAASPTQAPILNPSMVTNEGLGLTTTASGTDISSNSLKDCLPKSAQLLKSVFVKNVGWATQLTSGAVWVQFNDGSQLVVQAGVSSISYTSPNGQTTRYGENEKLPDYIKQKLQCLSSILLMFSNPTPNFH

DAPK1 = DAPK1 (Homo sapiens, UniProt P53355)
AKT3 = AKT3 (Homo sapiens, UniProt Q9Y243)
DYRK2 = biological target: T3, DYRK2 (Homo sapiens, UniProt Q92630)
T3 sequence (Q92630 1-601): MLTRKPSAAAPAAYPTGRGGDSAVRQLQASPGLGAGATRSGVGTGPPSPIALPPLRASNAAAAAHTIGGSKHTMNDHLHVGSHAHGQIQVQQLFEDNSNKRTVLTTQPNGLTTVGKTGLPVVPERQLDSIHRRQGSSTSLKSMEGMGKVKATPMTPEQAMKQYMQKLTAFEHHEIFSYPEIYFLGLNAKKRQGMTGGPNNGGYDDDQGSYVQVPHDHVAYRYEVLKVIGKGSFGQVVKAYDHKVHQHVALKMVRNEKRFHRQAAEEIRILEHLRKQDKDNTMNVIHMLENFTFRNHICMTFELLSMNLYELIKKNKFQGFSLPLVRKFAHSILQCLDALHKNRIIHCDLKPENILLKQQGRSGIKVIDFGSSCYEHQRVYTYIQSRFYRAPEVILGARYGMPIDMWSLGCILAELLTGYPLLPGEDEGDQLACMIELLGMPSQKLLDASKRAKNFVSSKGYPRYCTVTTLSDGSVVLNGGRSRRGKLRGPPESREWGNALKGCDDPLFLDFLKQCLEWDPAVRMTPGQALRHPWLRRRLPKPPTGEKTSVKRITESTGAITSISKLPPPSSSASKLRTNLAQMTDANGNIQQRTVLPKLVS

Sequence of DAPK1 (P53355 whole entry): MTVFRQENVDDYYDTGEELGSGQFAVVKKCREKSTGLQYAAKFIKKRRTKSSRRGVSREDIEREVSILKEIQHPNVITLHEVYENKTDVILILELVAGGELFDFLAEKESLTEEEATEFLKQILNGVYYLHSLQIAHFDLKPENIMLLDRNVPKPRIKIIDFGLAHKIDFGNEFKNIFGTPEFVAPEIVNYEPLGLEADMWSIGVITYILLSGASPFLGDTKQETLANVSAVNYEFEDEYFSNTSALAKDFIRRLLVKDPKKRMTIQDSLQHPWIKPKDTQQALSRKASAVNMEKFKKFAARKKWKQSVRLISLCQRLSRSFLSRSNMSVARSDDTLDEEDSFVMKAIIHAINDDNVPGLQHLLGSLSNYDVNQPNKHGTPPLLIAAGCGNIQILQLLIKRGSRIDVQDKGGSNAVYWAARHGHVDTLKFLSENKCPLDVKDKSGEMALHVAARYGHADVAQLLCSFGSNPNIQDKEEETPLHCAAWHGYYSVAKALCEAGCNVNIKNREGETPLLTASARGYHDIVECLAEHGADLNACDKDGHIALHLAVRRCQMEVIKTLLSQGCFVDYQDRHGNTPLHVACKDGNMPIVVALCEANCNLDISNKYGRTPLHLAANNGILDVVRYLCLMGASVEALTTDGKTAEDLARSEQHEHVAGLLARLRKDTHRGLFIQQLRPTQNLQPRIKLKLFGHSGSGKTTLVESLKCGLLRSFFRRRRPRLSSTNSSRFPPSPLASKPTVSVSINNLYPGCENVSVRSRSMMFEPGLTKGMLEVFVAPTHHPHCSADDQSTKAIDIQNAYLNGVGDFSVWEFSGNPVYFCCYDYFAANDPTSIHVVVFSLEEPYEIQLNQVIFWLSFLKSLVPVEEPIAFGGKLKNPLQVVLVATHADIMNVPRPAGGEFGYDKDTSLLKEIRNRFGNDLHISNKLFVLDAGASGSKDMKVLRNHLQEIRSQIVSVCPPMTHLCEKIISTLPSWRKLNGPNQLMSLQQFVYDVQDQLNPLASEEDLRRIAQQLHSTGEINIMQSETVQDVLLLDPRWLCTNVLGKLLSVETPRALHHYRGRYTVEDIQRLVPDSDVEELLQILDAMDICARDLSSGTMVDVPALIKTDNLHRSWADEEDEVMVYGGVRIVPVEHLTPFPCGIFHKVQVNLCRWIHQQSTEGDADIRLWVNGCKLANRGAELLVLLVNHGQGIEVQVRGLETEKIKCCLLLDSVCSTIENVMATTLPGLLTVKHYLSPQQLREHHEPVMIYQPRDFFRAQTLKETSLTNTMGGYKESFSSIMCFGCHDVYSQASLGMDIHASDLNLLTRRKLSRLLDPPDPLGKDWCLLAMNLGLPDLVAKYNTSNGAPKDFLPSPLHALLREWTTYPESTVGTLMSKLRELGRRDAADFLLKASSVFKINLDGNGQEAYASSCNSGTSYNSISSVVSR
Sequence of AKT3 (Q9Y243 whole entry): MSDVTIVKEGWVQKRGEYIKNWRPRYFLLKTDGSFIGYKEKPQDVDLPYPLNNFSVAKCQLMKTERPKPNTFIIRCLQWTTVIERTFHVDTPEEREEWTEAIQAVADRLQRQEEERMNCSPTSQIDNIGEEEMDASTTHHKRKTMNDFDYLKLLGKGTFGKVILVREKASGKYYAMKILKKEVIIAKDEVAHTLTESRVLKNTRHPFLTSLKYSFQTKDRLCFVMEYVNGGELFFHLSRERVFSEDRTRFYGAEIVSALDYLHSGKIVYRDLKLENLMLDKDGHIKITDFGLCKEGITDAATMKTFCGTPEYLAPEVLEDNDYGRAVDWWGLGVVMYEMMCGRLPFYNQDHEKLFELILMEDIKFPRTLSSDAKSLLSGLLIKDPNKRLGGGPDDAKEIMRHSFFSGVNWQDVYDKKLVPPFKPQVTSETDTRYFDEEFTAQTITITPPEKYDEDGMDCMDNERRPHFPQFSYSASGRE

SMILES: COc1cc(N2CCN(C)CC2)ccc1Nc1ncc2cc(-c3ccc(-c4cccc(C)n4)cc3Cl)c(=O)n(CCCCN)c2n1 [compound 36, 8-(4-Aminobutyl)-6-(2-chloro-4-(6-methylpyridin-2-yl)phenyl)-2-((2-methoxy-4-(4-methylpiperazin-1-yl)phenyl)amino)pyrido[2,3-d]pyrimidin-7(8H)-one]
- dTm 36 (AurA): 5.1 °C
- dTm 36 (CDK2): 0.6 °C
- dTm 36 (PLK4): 11.8 °C
- dTm 36 (DAPK1): -1.2 °C
- dTm 36 (AKT3): 1.0 °C
- dTm 36 (DYRK2): -0.4 °C

SMILES: COc1cc(N2CCOCC2)ccc1Nc1ncc2cc(-c3ccc(-c4cccc(C)n4)cc3Cl)c(=O)n(CCCCN)c2n1 [compound 35, 8-(4-Aminobutyl)-6-(2-chloro-4-(6-methylpyridin-2-yl)phenyl)-2-((2-methoxy-4-morpholino-phenyl)amino)pyrido[2,3-d]pyrimidin-7(8H)-one]
- dTm 35 (AurA): 8.6 °C
- dTm 35 (CDK2): 1.0 °C
- dTm 35 (PLK4): 13.6 °C
- dTm 35 (DAPK1): -2.1 °C
- dTm 35 (AKT3): 1.0 °C
- dTm 35 (DYRK2): -0.6 °C

SMILES: Cc1cccc(-c2ccc(-c3cc4cnc(Nc5ccc(F)c(CO)c5)nc4n(CCCCN)c3=O)c(Cl)c2)n1 [compound 33, 8-(4-Aminobutyl)-6-(2-chloro-4-(6-methylpyridin-2-yl)phenyl)-2-((4-fluoro-3-(hydroxymethyl)phenyl)amino)pyrido[2,3-d]pyrimidin-7(8H)-one]
- dTm 33 (AurA): 2.8 °C
- dTm 33 (CDK2): 6.0 °C
- dTm 33 (PLK4): 13.1 °C
- dTm 33 (DAPK1): -1.1 °C
- dTm 33 (AKT3): 4.6 °C
- dTm 33 (DYRK2): -1.0 °C

SMILES: COc1ccc(O)c(Nc2ncc3cc(-c4ccc(-c5cccc(C)n5)cc4Cl)c(=O)n(CCCCN)c3n2)c1 [compound 34, 8-(4-Aminobutyl)-6-(2-chloro-4-(6-methylpyridin-2-yl)phenyl)-2-((2-hydroxy-5-methoxy-phenyl)amino)pyrido[2,3-d]pyrimidin-7(8H)-one]
- dTm 34 (AurA): 3.4 °C
- dTm 34 (CDK2): 1.4 °C
- dTm 34 (PLK4): 8.8 °C
- dTm 34 (DAPK1): -0.8 °C
- dTm 34 (AKT3): 1.3 °C
- dTm 34 (DYRK2): 0.0 °C

From paper doi:10.1101/2023.11.24.568596v1 (biorxiv, 2023)
